Experimental data published in patent US20120324604A1, “PESTICIDAL MIXTURES CONTAINING ISOXAZOLINE DERIVATIVES AND A FUNGICIDE” (priority 2010, published 2012).

What was measured:
Type in all cases: cell-based
[1] = test system: Glomerella lagenarium (syn. Colletotrichum lagenarium); assay: Glomerella lagenarium (Anthracnose of Cucurbits) growth inhibition, microtiter plate, photometric; conditions: alone
Protocol: Glomerella lagenarium (syn. Colletotrichum lagenarium), Anthracnose of Cucurbits:
(§1) Conidia of the fungus from cryogenic storage were directly mixed into nutrient broth (potato dextrose broth). After placing a (DMSO) solution of the test compounds into a microtiter plate (96-well format) the nutrient broth containing the fungal spores was added.

[2] = test system: Mycosphaerella arachidis (syn. Cercospora arachidicola); assay: Mycosphaerella arachidis (Brown Leaf Spot of Groundnut) growth inhibition, microtiter plate, photometric; conditions: alone
Protocol: Mycosphaerella arachidis (syn. Cercospora arachidicola), Brown Leaf Spot of Groundnut (Peanut):
as §1

Septoria tritici = Septoria tritici (Leaf Blotch) growth inhibition, microtiter plate, photometric; conditions: for AVERAGE DEAD IN % A5: A5 alone; for AVERAGE DEAD IN %: alone; for AVERAGE DEAD IN % A6: A6 alone
Protocol: Septoria tritici (Leaf Blotch):
as §1

Fusarium culmorum = Fusarium culmorum (Root Rot) growth inhibition, microtiter plate, photometric
Protocol: Fusarium culmorum (Root Rot):
as §1

Rhizoctonia solani = Rhizoctonia solani (Foot Rot, Damping-Off) growth inhibition, microtiter plate, photometric
Protocol: Rhizoctonia solani (Foot Rot, Damping-Off):
Mycelial fragments of the fungus from cryogenic storage were directly mixed into nutrient broth (potato dextrose broth). After placing a (DMSO) solution of the test compounds into a microtiter plate (96-well format) the nutrient broth containing the fungal spores was added.

Pythium ultimum = Pythium ultimum (Damping Off) growth inhibition, microtiter plate, photometric
Protocol: Pythium ultimum (Damping Off):
Mycelial fragments of the fungus, prepared from a fresh liquid culture, were directly mixed into nutrient broth (potato dextrose broth). After placing a (DMSO) solution of the test compounds into a microtiter plate (96-well format) the nutrient broth containing the fungal spores was added.

Gaeumannomyces graminis = Gaeumannomyces graminis growth inhibition, microtiter plate, photometric
Protocol: Mycelial fragments of the fungus from cryogenic storage were directly mixed into nutrient broth (potato dextrose broth). After placing a (DMSO) solution of the test compounds into a microliter plate (96-well format) the nutrient broth containing the fungal spores was added.

[3] = single compound, 2.5 PPM AI, 48 hrs, 24° C.
[4] = single compound, 5 PPM AI, 48 hrs, 24° C.
[5] = single compound, 10 PPM AI, 48 hrs, 24° C.
[6] = single compound, 20 PPM AI, 48 hrs, 24° C.
[7] = applied alone, 0.0390625 ppm AI
[8] = single compound at 0.0390625 ppm AI
[9] = single compound at 0.078125 ppm AI
[10] = single compound at 0.15625 ppm AI
[11] = single compound at 0.3125 ppm AI
[12] = single compound at 0.625 ppm AI

Cc1cc(C2=NOC(c3cc(Cl)cc(Cl)c3)(C(F)(F)F)C2)ccc1C(=O)NC1CSC1 (racemic) [A5]
0%: AVERAGE DEAD IN % ([1]; 0.0390625 ppm AI) | AVERAGE DEAD IN % ([1]; 0.078125 ppm AI) | AVERAGE DEAD IN % ([1]; 0.15625 ppm AI) | AVERAGE DEAD IN % ([1]; 0.3125 ppm AI) | AVERAGE DEAD IN % ([1]; 0.625 ppm AI) | AVERAGE DEAD IN % ([1]; 1.25 ppm AI) | AVERAGE DEAD IN % ([1]; 2.5 ppm AI) | AVERAGE DEAD IN % ([1]; 5 ppm AI) | AVERAGE DEAD IN % ([1]; 10 ppm AI) | AVERAGE DEAD IN % ([1]; 20 ppm AI) | AVERAGE DEAD IN % ([2]; 0.078125 ppm AI) | AVERAGE DEAD IN % ([2]; 0.15625 ppm AI) | AVERAGE DEAD IN % ([2]; 0.3125 ppm AI) | AVERAGE DEAD IN % ([2]; 0.625 ppm AI) | AVERAGE DEAD IN % ([2]; 1.25 ppm AI) | AVERAGE DEAD IN % ([2]; 2.5 ppm AI) | AVERAGE DEAD IN % ([2]; 5 ppm AI) | AVERAGE DEAD IN % ([2]; 10 ppm AI) | AVERAGE DEAD IN % ([2]; 20 ppm AI) | AVERAGE DEAD IN % ([2]; 0.0390625 PPM AI) | AVERAGE DEAD IN % ([2]; 0.078125 PPM AI) | AVERAGE DEAD IN % ([2]; 0.15625 PPM AI) | AVERAGE DEAD IN % ([2]; 0.3125 PPM AI) | AVERAGE DEAD IN % ([2]; 0.625 PPM AI) | AVERAGE DEAD IN % ([2]; 1.25 PPM AI) | AVERAGE DEAD IN % ([2]; 2.5 PPM AI) | AVERAGE DEAD IN % ([2]; 5 PPM AI) | AVERAGE DEAD IN % ([2]; 10 PPM AI) | AVERAGE DEAD IN % A5 (Septoria tritici; 0.0390625 ppm AI) | AVERAGE DEAD IN % A5 (Septoria tritici; 0.078125 ppm AI) | AVERAGE DEAD IN % A5 (Septoria tritici; 0.15625 ppm AI) | AVERAGE DEAD IN % A5 (Septoria tritici; 0.3125 ppm AI) | AVERAGE DEAD IN % A5 (Septoria tritici; 0.625 ppm AI) | AVERAGE DEAD IN % A5 (Septoria tritici; 1.25 ppm AI) | AVERAGE DEAD IN % A5 (Septoria tritici; 2.5 ppm AI) | AVERAGE DEAD IN % A5 (Septoria tritici; 5 ppm AI) | AVERAGE DEAD IN % A5 (Septoria tritici; 10 ppm AI) | AVERAGE DEAD IN % (Fusarium culmorum; alone, 1.25 PPM AI) | AVERAGE DEAD IN % (Fusarium culmorum; alone, 2.5 PPM AI) | AVERAGE DEAD IN % (Fusarium culmorum; alone, 5 PPM AI) | AVERAGE DEAD IN % (Fusarium culmorum; alone, 10 PPM AI) | AVERAGE DEAD IN % (Fusarium culmorum; alone, 20 PPM AI) | AVERAGE DEAD IN % (Fusarium culmorum; single compound, 0.625 PPM AI, 48 hrs, 24° C.) | AVERAGE DEAD IN % (Fusarium culmorum; single compound, 1.25 PPM AI, 48 hrs, 24° C.) | AVERAGE DEAD IN % (Fusarium culmorum; [3]) | AVERAGE DEAD IN % (Fusarium culmorum; [4]) | AVERAGE DEAD IN % (Fusarium culmorum; [5]) | AVERAGE DEAD IN % (Fusarium culmorum; [6]) | AVERAGE DEAD IN % (Rhizoctonia solani; [7]) | AVERAGE DEAD IN % (Rhizoctonia solani; applied alone, 0.078125 ppm AI) | AVERAGE DEAD IN % (Rhizoctonia solani; applied alone, 0.15625 ppm AI) | AVERAGE DEAD IN % (Rhizoctonia solani; applied alone, 0.3125 ppm AI) | AVERAGE DEAD IN % (Rhizoctonia solani; applied alone, 0.625 ppm AI) | AVERAGE DEAD IN % (Rhizoctonia solani; applied alone, 1.25 ppm AI) | AVERAGE DEAD IN % (Rhizoctonia solani; applied alone, 2.5 ppm AI) | AVERAGE DEAD IN % (Rhizoctonia solani; applied alone, 5 ppm AI) | AVERAGE DEAD IN % (Rhizoctonia solani; applied alone, 10 ppm AI) | AVERAGE DEAD IN % (Rhizoctonia solani; applied alone, 20 ppm AI) | AVERAGE DEAD IN % (Rhizoctonia solani; single compound at 2.5 ppm AI) | AVERAGE DEAD IN % (Pythium ultimum; [8]) | AVERAGE DEAD IN % (Pythium ultimum; [9]) | AVERAGE DEAD IN % (Pythium ultimum; [10]) | AVERAGE DEAD IN % (Pythium ultimum; [11]) | AVERAGE DEAD IN % (Pythium ultimum; [12]) | AVERAGE DEAD IN % (Pythium ultimum; single compound at 1.25 ppm AI) | AVERAGE DEAD IN % (Pythium ultimum; single compound at 2.5 ppm AI) | AVERAGE DEAD IN % (Pythium ultimum; single compound at 5 ppm AI) | AVERAGE DEAD IN % (Pythium ultimum; single compound at 10 ppm AI) | AVERAGE DEAD IN % (Pythium ultimum; single compound at 20 ppm AI) | AVERAGE DEAD IN % (Gaeumannomyces graminis; [8]) | AVERAGE DEAD IN % (Gaeumannomyces graminis; [9]) | AVERAGE DEAD IN % (Gaeumannomyces graminis; [10]) | AVERAGE DEAD IN % (Gaeumannomyces graminis; [11]) | AVERAGE DEAD IN % (Gaeumannomyces graminis; [12]) | AVERAGE DEAD IN % (Gaeumannomyces graminis; single compound at 1.25 ppm AI) | AVERAGE DEAD IN % (Gaeumannomyces graminis; single compound at 2.5 ppm AI) | AVERAGE DEAD IN % (Gaeumannomyces graminis; single compound at 5 ppm AI) | AVERAGE DEAD IN % (Gaeumannomyces graminis; single compound at 10 ppm AI) | AVERAGE DEAD IN % (Gaeumannomyces graminis; single compound at 20 ppm AI)

Cc1cc(C2=NOC(c3cc(Cl)cc(Cl)c3)(C(F)(F)F)C2)ccc1C(=O)NC1C[S+]([O-])C1 (stereo not shown) [A6]
0%: AVERAGE DEAD IN % ([1]; 0.078125 ppm AI) | AVERAGE DEAD IN % ([1]; 0.15625 ppm AI) | AVERAGE DEAD IN % ([1]; 2.5 ppm AI) | AVERAGE DEAD IN % ([1]; 5 ppm AI) | AVERAGE DEAD IN % ([1]; 10 ppm AI) | AVERAGE DEAD IN % ([1]; 20 ppm AI) | AVERAGE DEAD IN % ([2]; 0.0390625 PPM AI) | AVERAGE DEAD IN % ([2]; 0.078125 PPM AI) | AVERAGE DEAD IN % ([2]; 0.15625 PPM AI) | AVERAGE DEAD IN % ([2]; 0.3125 PPM AI) | AVERAGE DEAD IN % ([2]; 0.625 PPM AI) | AVERAGE DEAD IN % ([2]; 1.25 PPM AI) | AVERAGE DEAD IN % ([2]; 2.5 PPM AI) | AVERAGE DEAD IN % ([2]; 5 PPM AI) | AVERAGE DEAD IN % ([2]; 10 PPM AI) | AVERAGE DEAD IN % ([2]; 20 PPM AI) | AVERAGE DEAD IN % (Septoria tritici; 0.3125 ppm AI) | AVERAGE DEAD IN % (Septoria tritici; 0.625 ppm AI) | AVERAGE DEAD IN % (Septoria tritici; 1.25 ppm AI) | AVERAGE DEAD IN % (Septoria tritici; 2.5 ppm AI) | AVERAGE DEAD IN % (Septoria tritici; 5 ppm AI) | AVERAGE DEAD IN % (Septoria tritici; 10 ppm AI) | AVERAGE DEAD IN % (Septoria tritici; 20 ppm AI) | AVERAGE DEAD IN % A6 (Septoria tritici; 0.0390625 ppm AI) | AVERAGE DEAD IN % A6 (Septoria tritici; 0.078125 ppm AI) | AVERAGE DEAD IN % A6 (Septoria tritici; 0.15625 ppm AI) | AVERAGE DEAD IN % A6 (Septoria tritici; 0.3125 ppm AI) | AVERAGE DEAD IN % A6 (Septoria tritici; 0.625 ppm AI) | AVERAGE DEAD IN % A6 (Septoria tritici; 1.25 ppm AI) | AVERAGE DEAD IN % A6 (Septoria tritici; 2.5 ppm AI) | AVERAGE DEAD IN % A6 (Septoria tritici; 5 ppm AI) | AVERAGE DEAD IN % A6 (Septoria tritici; 10 ppm AI) | AVERAGE DEAD IN % A6 (Septoria tritici; 20 ppm AI) | AVERAGE DEAD IN % (Fusarium culmorum; [3]) | AVERAGE DEAD IN % (Fusarium culmorum; [4]) | AVERAGE DEAD IN % (Fusarium culmorum; [5]) | AVERAGE DEAD IN % (Fusarium culmorum; [6]) | AVERAGE DEAD IN % (Rhizoctonia solani; [7]) | AVERAGE DEAD IN % (Rhizoctonia solani; applied alone, 0.078125 ppm AI) | AVERAGE DEAD IN % (Rhizoctonia solani; applied alone, 0.15625 ppm AI) | AVERAGE DEAD IN % (Rhizoctonia solani; applied alone, 0.3125 ppm AI) | AVERAGE DEAD IN % (Rhizoctonia solani; applied alone, 0.625 ppm AI) | AVERAGE DEAD IN % (Rhizoctonia solani; applied alone, 1.25 ppm AI) | AVERAGE DEAD IN % (Rhizoctonia solani; applied alone, 2.5 ppm AI) | AVERAGE DEAD IN % (Rhizoctonia solani; applied alone, 5 ppm AI) | AVERAGE DEAD IN % (Rhizoctonia solani; applied alone, 10 ppm AI) | AVERAGE DEAD IN % (Rhizoctonia solani; applied alone, 20 ppm AI) | AVERAGE DEAD IN % (Pythium ultimum; [9]) | AVERAGE DEAD IN % (Pythium ultimum; [10]) | AVERAGE DEAD IN % (Pythium ultimum; [11]) | AVERAGE DEAD IN % (Pythium ultimum; [12]) | AVERAGE DEAD IN % (Pythium ultimum; single compound at 1.25 ppm AI) | AVERAGE DEAD IN % (Pythium ultimum; single compound at 2.5 ppm AI) | AVERAGE DEAD IN % (Pythium ultimum; single compound at 5 ppm AI) | AVERAGE DEAD IN % (Pythium ultimum; single compound at 10 ppm AI) | AVERAGE DEAD IN % (Pythium ultimum; single compound at 20 ppm AI) | AVERAGE DEAD IN % (Gaeumannomyces graminis; [8]) | AVERAGE DEAD IN % (Gaeumannomyces graminis; [9]) | AVERAGE DEAD IN % (Gaeumannomyces graminis; [10]) | AVERAGE DEAD IN % (Gaeumannomyces graminis; [11]) | AVERAGE DEAD IN % (Gaeumannomyces graminis; [12]) | AVERAGE DEAD IN % (Gaeumannomyces graminis; single compound at 1.25 ppm AI) | AVERAGE DEAD IN % (Gaeumannomyces graminis; single compound at 2.5 ppm AI) | AVERAGE DEAD IN % (Gaeumannomyces graminis; single compound at 5 ppm AI) | AVERAGE DEAD IN % (Gaeumannomyces graminis; single compound at 10 ppm AI) | AVERAGE DEAD IN % (Gaeumannomyces graminis; single compound at 20 ppm AI)
